Values of other authors, collected in PMC5763161 (Molecular Therapy, 2017).

Tested on: dystrophin exon skipping
Conditions: mdx mice

ASSLNIA
delivery or exon-skipping levels when conjugated to a PMO: unable to increase
